The values that follow come from patent EP0400686A1, “2-Amino-9-[1,3bis-(isopropoxy)-propyl-2-oxymethyl]-purine, its utilization and medicaments containing it” (HOECHST AKTIENGESELLSCHAFT, priority 1985, dated 1987).

This experiment deals with Herpes simplex Typ 1. The experiment can be described thus: In vivo test: NMRI mice infected intraperitoneally with Herpes simplex type 1, treated i.p. twice daily for 5 days, survival rate. As to conditions: Herpes simplex Typ 1 an der NMRI-Maus. From the text:
NMRI-Mäuse, spezifisch pathogenfrei, im Gewicht von etwa 15 g wurden intraperitoneal mit Herpes simplex Typ 1 infiziert und anschließend mit den beschriebenen Verbindungen intraperitoneal therapiert. Als Vergleich diente stets Acyclovir (ACV). Die Behandlung erfolgte zweimal täglich über 5 Tage, beginnend nach der Infektion. Der Behandlungserfolg wurde anhand des Krankheitsverlaufes und der Überlebensrate gegenüber den unbehandelten Infektionskontrollen bestimmt. Letztere erhielten anstelle der zu prüfenden Verbindungen eine wasserlösliche Methylhydroxyäthylcellulose (Viskosität […] in 2 %iger Lösung) (^(R)Tylose MH 300 P) appliziert.
Die chemaotherapeutische Wirkung erfindungsgemäßer Verbindungen ist aus Tabelle 1 ersichtlich.

The mark [1] stands for this setting: Dosierung 10 x 0,2 mg/Maus i.p.
[2] abbreviates: Dosierung 10 x 0,6 mg/Maus i.p.

Turning to `CC(=O)OCC(CN=[N+]=[N-])OCn1cnc2c(=O)[nH]c(N)nc21` (racemic) [Verbindung 9, 9-(1-Azidomethyl-2-acetoxyäthoxymethyl)-guanin], the “Mittlere Überlebensrate x/10” value is reported as 9/10 under setting [1] and 9/10 under setting [2].

In the case of `CC(=O)OCC(COC(C)C)OCn1cnc2c(=O)[nH]c(N)nc21` (racemic) [Verbindung 20, 9-(1-Isopropoxymethyl-2-acetoxyäthoxymethyl)-guanin], the “Mittlere Überlebensrate x/10” value runs as follows: under setting [1], 10/10; under setting [2], 10/10.
